Assay results published in ChEMBL document CHEMBL1201862, “PubChem BioAssay data set” (2004).
Active and inactive are the calls of the source.

Legend:
Saccharomyces cerevisiae = assay: NALP1 inhibitor project selectivity study, Caspase-1/ASC signal blockade IC50 in S. cerevisiae (AID 488863); type: functional, organism-based
[1] = target: NACHT, LRR and PYD domains-containing protein 1 (Homo sapiens, UniProt Q9C000); assay: NALP1 inhibitors in yeast, dose response, luminescent (AID 488860); type: functional
[2] = target: Cystic fibrosis transmembrane conductance regulator/Golgi-associated PDZ and coiled-coil motif-containing protein (Homo sapiens, UniProt P13569+Q9HD26); assay: CAL PDZ peptide-binding inhibitors, dose response, biochemical, fluorescence polarization, Cerulean-tagged CAL PDZ, cherry-picks (AID 504773)
[3] = target: T1, Tyrosine-protein phosphatase non-receptor type 7 (Homo sapiens, UniProt P35236); assay: redox-dependent HePTP inhibition, mechanism study, biochemical, fluorescence (AID 2068); type: functional
T1 sequence (P35236 whole entry): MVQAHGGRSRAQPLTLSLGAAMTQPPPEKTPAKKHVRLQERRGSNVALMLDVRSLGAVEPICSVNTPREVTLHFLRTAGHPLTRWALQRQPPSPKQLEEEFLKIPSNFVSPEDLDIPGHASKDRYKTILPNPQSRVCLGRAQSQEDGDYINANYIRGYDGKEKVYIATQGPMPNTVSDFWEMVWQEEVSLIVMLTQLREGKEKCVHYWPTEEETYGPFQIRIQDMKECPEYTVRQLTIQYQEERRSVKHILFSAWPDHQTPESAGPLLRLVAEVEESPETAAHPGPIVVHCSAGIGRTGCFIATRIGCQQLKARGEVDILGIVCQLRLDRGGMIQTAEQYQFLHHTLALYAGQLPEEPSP

[4] = target: Voltage-gated N-type calcium channel alpha-1B subunit/Amyloid beta A4 precursor protein-binding family A member 1 (Homo sapiens, UniProt Q00975+Q02410); assay: disruptors of Mint-PDZ/N-type channel peptide interaction – biochemical, HTRF, SAR follow-up (AID 2489); type: functional
[5] = blockers of SFLLRN-triggered platelet ATP secretion – cell-based, human platelets, luminescence, dry powder, dose response (AID 493100); type: functional
Wee1-like protein kinase = Wee1-like protein kinase (Homo sapiens, UniProt P30291); assay: G2/M cell cycle arrest in HeLa, late-stage follow-up, mechanism study for Wee1 degradation inhibitor project, FACS, panel member Wee1 Degradation (AID 2088)
[6] = target: G2/mitotic-specific cyclin-B1 (Homo sapiens, UniProt P14635); assay: G2/M cell cycle arrest in HeLa, late-stage follow-up, mechanism study for Wee1 degradation inhibitor project, FACS, panel member Cyclin B Degradation (AID 2088)
[7] = inhibitors of intracellular T. cruzi replication, confirmation, NIH3T3 host cells, beta-gal luminescence (AID 2044); type: functional, cell-based;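 further: intracellular parasites grown in NIH/3T3 mouse fibroblasts as host cells; luminescent beta-galactosidase reporter signal from transgenic T. cruzi replicating inside host cells; inhibitors lower the luminescence signal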
[8] = cytotoxicity toward NIH3T3 fibroblasts, dose response, counter-screen, cell-based, ATP luminescence, mouse fibroblasts (AID 2010); type: functional;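 further: cells exposed to compound for about 90 hours before reading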
[9] = target: T2, Ubiquitin-conjugating enzyme E2 N (Homo sapiens, UniProt P61088); type: functional;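 further: Dose-response confirmation in a TR-FRET assay detecting UBC13-driven polyubiquitin chain formation, inhibition measured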
T2 sequence (P61088 whole entry): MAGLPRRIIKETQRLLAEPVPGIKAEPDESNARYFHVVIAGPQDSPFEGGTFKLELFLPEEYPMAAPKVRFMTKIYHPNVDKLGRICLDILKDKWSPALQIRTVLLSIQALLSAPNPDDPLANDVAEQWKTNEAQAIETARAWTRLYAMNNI

[10] = Cytotoxicity screening for potential Inhibitors of Bacterial Capsule Biogenesis. [Related pubchem assays (depositor defined):AID488970]; type: functional
INS1 = assay: beta cell apoptosis inhibitors, cytokine rescue, dose response, luminescence, retest (AID 449756); type: functional, cell-based; details: Rattus norvegicus;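 further: cell death triggered by IL-1 beta plus TNF-alpha plus IFN-gamma mixture; protective hits raise ATP signal compared with cytokine alone wells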
[11] = target: Intestinal-type alkaline phosphatase (Homo sapiens, UniProt P09923); assay: Dose Response confirmation of uHTS hits from a small molecule inhibitors of human intestinal alkaline phosphatase via a luminescent assay. [Related pubchem assays (depositor defined):AID2544, AID2574]; type: functional
[12] = inhibitors of firefly luciferase expression or activity, dose response, H4 neuroglioma cells, luminescence (AID 1990); type: functional, cell-based
BJ [13] = assay: cytotoxicity toward BJ-TERT fibroblasts, dose response, cell-based, RAS-independent, luminescence (AID 1933); type: functional; details: Homo sapiens
[14] = Luminescence Cell-Based Dose Response HTS to Identify Inhibitors of 5'UTR Stem-Loop Driven Prion Protein mRNA Translation in H4 Neuroglioblastoma Cells. [Related pubchem assays: 1827 (Project Summary), 1813 (Primary HTS)]; type: functional
[15] = inhibitors of SNCA 5'UTR-driven reporter translation, confirmation, H4 neuroglioma cells, luminescence (AID 1988); type: functional, cell-based
BJ [16] = assay: cells; type: functional, cell-based; details: Homo sapiens
J774.A1 = assay: Confirmation of image-based Screening Assay for Inhibitors of Phagocytosis. [Related pubchem assays (depositor defined):AID1029, AID1643]; type: functional, cell-based; details: Mus musculus
BJ [17] = assay: cytotoxicity toward BJ-TERT-LT-ST fibroblasts, dose response, cell-based, RAS-independent, luminescence (AID 1935); type: functional; details: Homo sapiens;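 further: BJ fibroblasts immortalized with TERT plus LT and ST oncogenes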
[18] = cytotoxicity toward DRD oncogenic fibroblasts, dose response, cell-based, non-viral oncogenic, luminescence (AID 1934); type: functional; details: Homo sapiens
[19] = cytotoxicity in HEK-293T cells, dose response, cytotoxicity control for TCR NF-kB inhibitor project, luminescence, T-cell screen hits (AID 489026); type: functional, cell-based;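 further: cells exposed to compound about 14 hours before the viability readout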

Chain of Wee1-like protein kinase (P30291 whole entry): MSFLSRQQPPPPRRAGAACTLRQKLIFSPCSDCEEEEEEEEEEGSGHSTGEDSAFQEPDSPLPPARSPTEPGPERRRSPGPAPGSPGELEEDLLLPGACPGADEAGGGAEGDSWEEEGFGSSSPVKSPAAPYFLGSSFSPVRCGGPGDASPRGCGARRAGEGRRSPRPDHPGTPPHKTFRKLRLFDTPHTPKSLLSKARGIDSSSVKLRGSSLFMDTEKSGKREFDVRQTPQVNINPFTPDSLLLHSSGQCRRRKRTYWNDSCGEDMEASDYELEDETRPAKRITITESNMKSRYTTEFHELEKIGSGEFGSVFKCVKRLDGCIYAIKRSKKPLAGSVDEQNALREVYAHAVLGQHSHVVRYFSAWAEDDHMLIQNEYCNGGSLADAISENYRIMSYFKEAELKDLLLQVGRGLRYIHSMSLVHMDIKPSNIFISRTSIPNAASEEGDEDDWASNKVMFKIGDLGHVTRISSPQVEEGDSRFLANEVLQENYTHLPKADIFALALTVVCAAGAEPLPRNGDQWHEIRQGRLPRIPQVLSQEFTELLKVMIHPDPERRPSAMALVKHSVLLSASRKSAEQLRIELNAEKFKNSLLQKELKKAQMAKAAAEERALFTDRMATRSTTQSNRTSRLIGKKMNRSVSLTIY
Chain of Voltage-gated N-type calcium channel alpha-1B subunit/Amyloid beta A4 precursor protein-binding family A member 1 (Q00975 whole entry): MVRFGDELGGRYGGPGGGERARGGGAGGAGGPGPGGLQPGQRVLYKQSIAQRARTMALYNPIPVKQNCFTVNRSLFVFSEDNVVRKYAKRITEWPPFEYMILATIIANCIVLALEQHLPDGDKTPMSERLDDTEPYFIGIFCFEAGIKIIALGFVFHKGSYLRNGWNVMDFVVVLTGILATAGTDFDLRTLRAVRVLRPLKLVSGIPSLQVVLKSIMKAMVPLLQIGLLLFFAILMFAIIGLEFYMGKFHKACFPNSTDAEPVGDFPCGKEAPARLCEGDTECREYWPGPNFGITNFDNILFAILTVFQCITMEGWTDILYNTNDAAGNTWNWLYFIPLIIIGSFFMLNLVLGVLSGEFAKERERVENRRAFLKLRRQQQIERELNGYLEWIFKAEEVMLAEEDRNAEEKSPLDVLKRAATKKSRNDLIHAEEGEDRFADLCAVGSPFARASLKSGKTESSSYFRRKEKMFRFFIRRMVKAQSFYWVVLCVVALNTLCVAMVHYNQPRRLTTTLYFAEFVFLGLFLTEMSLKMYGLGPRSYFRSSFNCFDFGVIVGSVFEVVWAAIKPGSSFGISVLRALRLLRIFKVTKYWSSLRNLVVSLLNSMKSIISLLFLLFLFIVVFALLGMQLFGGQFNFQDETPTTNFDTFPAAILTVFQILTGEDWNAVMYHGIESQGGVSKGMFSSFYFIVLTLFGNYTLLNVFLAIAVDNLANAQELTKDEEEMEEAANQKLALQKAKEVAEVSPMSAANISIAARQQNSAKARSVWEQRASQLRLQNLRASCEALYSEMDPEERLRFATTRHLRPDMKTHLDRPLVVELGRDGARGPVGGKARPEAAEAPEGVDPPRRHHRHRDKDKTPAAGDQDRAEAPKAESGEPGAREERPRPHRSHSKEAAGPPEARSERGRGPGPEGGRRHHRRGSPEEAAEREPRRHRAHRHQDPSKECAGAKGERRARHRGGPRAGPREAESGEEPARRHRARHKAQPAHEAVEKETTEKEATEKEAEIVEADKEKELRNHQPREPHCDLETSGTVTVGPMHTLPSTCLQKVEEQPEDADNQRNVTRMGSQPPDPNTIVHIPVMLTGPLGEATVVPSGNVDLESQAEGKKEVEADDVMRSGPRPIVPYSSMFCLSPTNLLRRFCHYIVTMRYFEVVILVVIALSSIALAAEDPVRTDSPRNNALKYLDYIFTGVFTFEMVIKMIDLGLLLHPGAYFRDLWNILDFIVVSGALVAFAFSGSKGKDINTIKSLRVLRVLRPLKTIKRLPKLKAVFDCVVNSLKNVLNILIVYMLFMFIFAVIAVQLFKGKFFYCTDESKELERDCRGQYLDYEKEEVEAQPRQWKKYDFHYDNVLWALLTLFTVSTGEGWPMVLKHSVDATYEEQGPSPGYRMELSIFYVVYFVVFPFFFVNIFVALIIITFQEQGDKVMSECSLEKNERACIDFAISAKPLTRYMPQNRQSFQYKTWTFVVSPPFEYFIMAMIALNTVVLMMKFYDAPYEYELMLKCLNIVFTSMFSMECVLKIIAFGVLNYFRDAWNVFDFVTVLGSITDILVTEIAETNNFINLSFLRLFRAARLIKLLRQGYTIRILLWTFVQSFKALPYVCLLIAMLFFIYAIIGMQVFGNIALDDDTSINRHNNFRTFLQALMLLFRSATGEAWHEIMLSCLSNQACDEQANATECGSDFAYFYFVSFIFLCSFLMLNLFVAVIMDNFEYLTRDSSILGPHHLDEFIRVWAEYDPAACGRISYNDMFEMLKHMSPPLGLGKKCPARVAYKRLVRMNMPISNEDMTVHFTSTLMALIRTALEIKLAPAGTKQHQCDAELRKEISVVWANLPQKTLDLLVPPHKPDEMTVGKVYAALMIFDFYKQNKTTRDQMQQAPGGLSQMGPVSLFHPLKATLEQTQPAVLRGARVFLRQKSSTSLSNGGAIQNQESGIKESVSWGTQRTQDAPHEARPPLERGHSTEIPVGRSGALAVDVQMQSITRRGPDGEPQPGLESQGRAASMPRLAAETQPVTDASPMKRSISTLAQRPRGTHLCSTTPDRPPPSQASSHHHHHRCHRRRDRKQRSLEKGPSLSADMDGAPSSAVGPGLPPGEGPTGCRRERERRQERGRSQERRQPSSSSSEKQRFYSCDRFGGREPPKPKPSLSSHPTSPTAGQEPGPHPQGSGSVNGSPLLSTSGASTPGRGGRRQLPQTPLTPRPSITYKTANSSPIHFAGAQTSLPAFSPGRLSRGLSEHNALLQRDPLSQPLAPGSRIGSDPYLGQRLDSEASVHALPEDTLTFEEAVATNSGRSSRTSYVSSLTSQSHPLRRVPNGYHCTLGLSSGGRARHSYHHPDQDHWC
Chain of Voltage-gated N-type calcium channel alpha-1B subunit/Amyloid beta A4 precursor protein-binding family A member 1 (Q02410 whole entry): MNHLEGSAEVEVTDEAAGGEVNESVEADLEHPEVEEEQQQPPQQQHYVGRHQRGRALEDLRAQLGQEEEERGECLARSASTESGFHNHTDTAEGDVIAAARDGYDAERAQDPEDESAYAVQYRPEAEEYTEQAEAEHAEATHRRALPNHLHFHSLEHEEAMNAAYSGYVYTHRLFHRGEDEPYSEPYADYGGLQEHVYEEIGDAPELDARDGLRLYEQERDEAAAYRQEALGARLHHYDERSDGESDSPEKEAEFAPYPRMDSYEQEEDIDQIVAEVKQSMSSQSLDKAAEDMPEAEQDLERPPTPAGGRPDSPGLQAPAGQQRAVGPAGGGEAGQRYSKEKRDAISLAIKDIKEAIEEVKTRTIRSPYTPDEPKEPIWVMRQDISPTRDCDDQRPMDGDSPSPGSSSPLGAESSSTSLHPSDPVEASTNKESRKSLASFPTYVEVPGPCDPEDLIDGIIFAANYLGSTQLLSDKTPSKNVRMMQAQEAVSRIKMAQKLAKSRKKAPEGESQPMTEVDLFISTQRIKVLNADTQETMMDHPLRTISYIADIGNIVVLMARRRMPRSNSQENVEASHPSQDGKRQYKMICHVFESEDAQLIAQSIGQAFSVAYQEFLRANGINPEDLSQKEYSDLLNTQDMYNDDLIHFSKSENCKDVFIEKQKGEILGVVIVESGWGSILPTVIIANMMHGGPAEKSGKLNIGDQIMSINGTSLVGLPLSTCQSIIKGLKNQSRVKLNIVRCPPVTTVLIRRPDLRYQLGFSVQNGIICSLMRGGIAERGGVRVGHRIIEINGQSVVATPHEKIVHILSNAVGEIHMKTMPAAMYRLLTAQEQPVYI
Chain of G2/mitotic-specific cyclin-B1 (P14635 whole entry): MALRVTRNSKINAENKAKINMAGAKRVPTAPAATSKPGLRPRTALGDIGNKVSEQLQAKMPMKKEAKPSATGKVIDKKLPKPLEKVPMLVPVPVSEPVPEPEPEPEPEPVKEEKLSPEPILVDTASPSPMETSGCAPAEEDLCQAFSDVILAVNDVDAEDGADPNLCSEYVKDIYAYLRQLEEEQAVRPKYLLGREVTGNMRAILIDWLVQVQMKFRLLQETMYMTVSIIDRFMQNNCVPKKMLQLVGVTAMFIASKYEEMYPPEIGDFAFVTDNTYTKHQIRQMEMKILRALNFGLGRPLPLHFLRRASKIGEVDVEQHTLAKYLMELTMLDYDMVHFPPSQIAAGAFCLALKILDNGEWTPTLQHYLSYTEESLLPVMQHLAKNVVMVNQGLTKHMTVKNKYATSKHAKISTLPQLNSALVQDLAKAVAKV
Chain of Intestinal-type alkaline phosphatase (P09923 whole entry): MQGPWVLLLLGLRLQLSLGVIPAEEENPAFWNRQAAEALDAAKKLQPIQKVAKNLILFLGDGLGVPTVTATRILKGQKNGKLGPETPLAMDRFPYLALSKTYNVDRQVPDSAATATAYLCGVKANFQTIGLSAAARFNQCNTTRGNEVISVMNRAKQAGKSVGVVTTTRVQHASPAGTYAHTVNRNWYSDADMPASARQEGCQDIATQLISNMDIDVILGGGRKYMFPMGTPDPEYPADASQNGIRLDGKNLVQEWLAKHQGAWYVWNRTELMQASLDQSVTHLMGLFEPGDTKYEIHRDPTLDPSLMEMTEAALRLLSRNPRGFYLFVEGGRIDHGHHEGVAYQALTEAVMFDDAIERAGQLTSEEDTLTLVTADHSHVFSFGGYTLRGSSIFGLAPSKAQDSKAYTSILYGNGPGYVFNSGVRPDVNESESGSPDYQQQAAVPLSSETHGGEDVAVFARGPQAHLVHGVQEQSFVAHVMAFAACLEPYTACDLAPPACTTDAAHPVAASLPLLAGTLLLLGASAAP

## CCCCC(=O)Nc1ccc(C(=O)NNC(=S)NC(=O)c2ccco2)cc1
Saccharomyces cerevisiae
  IC50: 18.8 µM (active)
[1]
  IC50: 25.7 µM (active)

## O=C1OC(c2ccccc2)(c2ccccc2)c2ccccc21
[2]
  AC50: 17.3 µM (active)

## O=C(Nc1ccc2nc(-c3ccco3)c(-c3ccco3)nc2c1)N1CCOCC1
[3]
  IC50: 0.693 µM (active)
[4]
  IC50: 22.3 µM (active)

## CCCC(=O)Nc1cccc(NC(=O)c2ccccc2C)c1
[5]
  AC50: 5.5 µM (active)

## Cc1cc(=O)[nH]c(-n2nc(C)cc2NC(=O)c2cccs2)n1
Wee1-like protein kinase
  EC50: > 49.7 µM (inactive)
[6]
  EC50: > 49.7 µM (inactive)

## N=C(N)N/N=C/c1ccc(OCc2ccccc2)cc1
[7]
  EC50: 0.92 µM (active)
[8]
  EC50: > 60 µM (not active)
[9]
  IC50: > 20 µM (inactive)
[10]
  CC50: 10.4 µM (active)
INS1
  AC50: 6.57 µM (active)

## Cc1[nH]n(-c2nc(-c3ccccc3F)cc(=O)[nH]2)c(=O)c1CCO
[11]
  IC50: 1.07 µM (active)

## CCOC(=O)Nc1nc(-c2ccccc2)c(C(=O)c2ccccc2)s1
[12]
  EC50: 1.41 µM (active)
BJ [13]
  EC50: 7.17 µM (inconclusive)
[14]
  EC50: 1.38 µM (active)
[15]
  EC50: 0.198 µM (active)
BJ [16]
  EC50: 17.1 µM (inconclusive)
J774.A1
  IC50: 0.215 µM (active)
BJ [17]
  EC50: 4.12 µM (inconclusive)
[18]
  EC50: 12.3 µM (inconclusive)
[19]
  IC50: 68.3 µM (inactive)
